{"source": "paper PMC3565832", "about": "(mBio, 2013)", "system": "HSV-1", "test": "HSV-1 IE gene expression in HeLa cells", "format": "cell-based", "details": "50 µM, 5 h pretreatment, HSV-1 0.1 PFU/cell for 2 h", "data": [{"smiles": "C[C@H](NCc1ccc(OCc2cccc(F)c2)cc1)C(N)=O", "note": "[Safinamide, safinamide]", "values": [{"measurement": "inhibition of expression of viral IE (ICP27 and ICP4) genes", "result": "did not show substantial inhibition"}]}]}
